How the values were obtained:
[1] = target: Histone-lysine N-methyltransferase NSD3 (Homo sapiens) (UniProt Q9BZ95); test: Selectivity interaction (Methyltransferase panel) EUB0000198b NSD3; conditions: at 10 µM
[2] = target: T1, Tyrosine-protein kinase JAK3 (Homo sapiens) (UniProt P52333); conditions: at 500 nM
T1 sequence (whole entry): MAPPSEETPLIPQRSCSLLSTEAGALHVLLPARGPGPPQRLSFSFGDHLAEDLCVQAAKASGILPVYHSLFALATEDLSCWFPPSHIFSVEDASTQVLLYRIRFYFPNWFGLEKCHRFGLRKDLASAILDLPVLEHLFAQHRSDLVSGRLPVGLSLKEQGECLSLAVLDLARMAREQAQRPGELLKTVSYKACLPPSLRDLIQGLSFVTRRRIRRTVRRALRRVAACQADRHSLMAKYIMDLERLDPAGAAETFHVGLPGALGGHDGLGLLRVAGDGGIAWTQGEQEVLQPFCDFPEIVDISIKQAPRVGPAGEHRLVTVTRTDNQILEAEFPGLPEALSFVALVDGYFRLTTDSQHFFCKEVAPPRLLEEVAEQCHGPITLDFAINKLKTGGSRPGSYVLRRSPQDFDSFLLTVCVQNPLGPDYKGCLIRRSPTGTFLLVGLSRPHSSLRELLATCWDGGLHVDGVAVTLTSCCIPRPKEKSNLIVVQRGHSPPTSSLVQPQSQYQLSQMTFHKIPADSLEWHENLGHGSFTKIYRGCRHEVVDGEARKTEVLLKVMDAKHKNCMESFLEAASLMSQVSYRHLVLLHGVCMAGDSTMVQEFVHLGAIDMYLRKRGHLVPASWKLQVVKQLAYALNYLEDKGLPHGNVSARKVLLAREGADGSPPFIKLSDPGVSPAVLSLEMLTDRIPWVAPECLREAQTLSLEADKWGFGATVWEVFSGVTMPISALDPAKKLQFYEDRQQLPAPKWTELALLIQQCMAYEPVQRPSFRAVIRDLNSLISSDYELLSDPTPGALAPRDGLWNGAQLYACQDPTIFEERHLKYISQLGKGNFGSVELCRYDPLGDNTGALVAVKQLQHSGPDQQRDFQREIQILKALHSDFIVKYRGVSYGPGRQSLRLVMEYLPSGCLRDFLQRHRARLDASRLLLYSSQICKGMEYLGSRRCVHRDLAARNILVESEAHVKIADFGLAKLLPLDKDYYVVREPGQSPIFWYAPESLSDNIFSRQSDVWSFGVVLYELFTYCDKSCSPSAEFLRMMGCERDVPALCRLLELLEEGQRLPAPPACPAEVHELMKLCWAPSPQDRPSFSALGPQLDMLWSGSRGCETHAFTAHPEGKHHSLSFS

[3] = target: Vascular endothelial growth factor receptor 2 (Homo sapiens, UniProt P35968); test: Selectivity interaction (HotSpot assay platform (Reaction Biology)) EUB0000632a KDR; conditions: at 1 µM
[4] = target: Protein-tyrosine kinase 6 (Homo sapiens) (UniProt Q13882); test: Selectivity interaction (HotSpot assay platform (Reaction Biology)) EUB0000632a PTK6; conditions: at 1 µM
Chain of Protein-tyrosine kinase 6 (Homo sapiens) (Q13882 whole entry, looked up): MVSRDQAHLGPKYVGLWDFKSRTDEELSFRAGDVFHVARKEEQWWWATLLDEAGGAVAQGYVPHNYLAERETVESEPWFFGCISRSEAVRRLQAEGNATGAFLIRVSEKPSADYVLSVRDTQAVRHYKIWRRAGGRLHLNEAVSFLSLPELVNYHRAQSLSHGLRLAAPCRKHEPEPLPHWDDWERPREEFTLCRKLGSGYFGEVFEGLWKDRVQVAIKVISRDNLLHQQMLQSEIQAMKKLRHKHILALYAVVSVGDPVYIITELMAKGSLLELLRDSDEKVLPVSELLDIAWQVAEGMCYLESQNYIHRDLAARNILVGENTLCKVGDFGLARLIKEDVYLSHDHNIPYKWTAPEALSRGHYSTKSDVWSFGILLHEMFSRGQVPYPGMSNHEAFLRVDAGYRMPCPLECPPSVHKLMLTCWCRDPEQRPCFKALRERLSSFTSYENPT

[5] = target: Tyrosine-protein kinase Fyn (Homo sapiens, UniProt P06241); test: Selectivity interaction (HotSpot assay platform (Reaction Biology)) EUB0000632a FYN; conditions: at 1 µM
Chain of Tyrosine-protein kinase Fyn (P06241 2-537 limits assumed): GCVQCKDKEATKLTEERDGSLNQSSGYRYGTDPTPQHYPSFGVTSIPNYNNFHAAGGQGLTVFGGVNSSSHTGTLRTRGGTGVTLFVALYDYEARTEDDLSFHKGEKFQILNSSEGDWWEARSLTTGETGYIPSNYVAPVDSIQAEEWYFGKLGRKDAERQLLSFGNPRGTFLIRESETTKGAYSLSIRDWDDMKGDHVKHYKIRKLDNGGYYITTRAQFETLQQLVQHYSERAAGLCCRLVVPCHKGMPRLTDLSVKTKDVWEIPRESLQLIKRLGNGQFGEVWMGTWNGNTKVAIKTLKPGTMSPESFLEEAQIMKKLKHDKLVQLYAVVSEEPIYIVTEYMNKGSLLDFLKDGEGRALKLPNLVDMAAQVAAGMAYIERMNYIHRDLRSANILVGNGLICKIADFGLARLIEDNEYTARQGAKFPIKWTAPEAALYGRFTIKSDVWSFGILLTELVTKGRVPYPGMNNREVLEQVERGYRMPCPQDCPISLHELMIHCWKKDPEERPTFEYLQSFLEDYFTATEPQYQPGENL

[6] = target: Tyrosine-protein kinase ABL1 (Homo sapiens, UniProt P00519); test: Selectivity interaction (HotSpot assay platform (Reaction Biology)) EUB0000632a ABL1; conditions: at 1 µM
[7] = target: 5-hydroxytryptamine receptor 1A (Homo sapiens) (UniProt P08908); test: Selectivity interaction (CEREP ExpressProfile selectivity/specificity profile (human recombinant receptors)) EUB0000213bCl HTR1A; conditions: at 10 µM
[8] = target: Sodium-dependent dopamine transporter (Homo sapiens, UniProt Q01959); test: Selectivity interaction (CEREP ExpressProfile selectivity/specificity profile (human recombinant receptors)) EUB0000213bCl SLC6A3; conditions: at 10 µM
[9] = target: Sodium-dependent serotonin transporter (Homo sapiens) (UniProt P31645); test: Selectivity interaction (CEREP ExpressProfile selectivity/specificity profile (human recombinant receptors)) EUB0000213bCl SLC6A4; conditions: at 10 µM
Chain of Sodium-dependent serotonin transporter (Homo sapiens) (P31645 whole entry, looked up): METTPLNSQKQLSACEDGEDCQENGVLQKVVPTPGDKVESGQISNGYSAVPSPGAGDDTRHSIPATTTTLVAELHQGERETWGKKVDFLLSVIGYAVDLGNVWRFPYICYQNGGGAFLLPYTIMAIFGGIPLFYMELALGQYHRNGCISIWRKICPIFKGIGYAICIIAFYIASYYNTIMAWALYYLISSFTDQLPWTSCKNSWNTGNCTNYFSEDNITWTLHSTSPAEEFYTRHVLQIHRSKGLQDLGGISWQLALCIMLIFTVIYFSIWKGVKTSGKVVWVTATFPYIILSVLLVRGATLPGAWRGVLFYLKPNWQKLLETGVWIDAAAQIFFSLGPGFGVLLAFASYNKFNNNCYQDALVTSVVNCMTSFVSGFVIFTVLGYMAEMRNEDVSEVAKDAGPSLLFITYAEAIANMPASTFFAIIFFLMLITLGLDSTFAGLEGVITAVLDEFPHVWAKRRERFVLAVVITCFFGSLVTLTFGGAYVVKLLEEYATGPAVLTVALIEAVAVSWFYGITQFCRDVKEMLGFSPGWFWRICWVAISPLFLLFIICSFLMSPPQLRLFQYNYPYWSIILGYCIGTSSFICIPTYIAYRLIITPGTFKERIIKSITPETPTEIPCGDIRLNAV

[10] = target: T2, Muscarinic acetylcholine receptor M2 (Homo sapiens) (UniProt P08172); test: Selectivity interaction (Eurofins-Panlabs panel) EUB0000295b CHRM2; conditions: at 10 µM
T2 sequence (whole entry): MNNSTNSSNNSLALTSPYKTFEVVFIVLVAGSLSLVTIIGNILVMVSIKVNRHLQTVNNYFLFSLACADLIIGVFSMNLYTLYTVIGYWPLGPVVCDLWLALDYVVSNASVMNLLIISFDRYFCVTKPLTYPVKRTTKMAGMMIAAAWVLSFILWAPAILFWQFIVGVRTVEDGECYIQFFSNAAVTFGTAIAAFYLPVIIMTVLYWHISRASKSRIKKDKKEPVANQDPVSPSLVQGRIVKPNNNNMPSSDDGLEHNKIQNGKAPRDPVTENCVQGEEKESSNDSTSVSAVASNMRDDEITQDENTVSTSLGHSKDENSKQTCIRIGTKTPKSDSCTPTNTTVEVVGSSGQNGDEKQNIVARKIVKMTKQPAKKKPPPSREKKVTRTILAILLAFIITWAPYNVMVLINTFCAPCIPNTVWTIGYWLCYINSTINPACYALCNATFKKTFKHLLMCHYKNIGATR

[11] = target: T3, Phosphatidylinositol 4,5-bisphosphate 3-kinase catalytic subunit delta isoform (Homo sapiens) (UniProt O00329); test: Selectivity interaction (KinomeScan (DiscoverX)) EUB0000295b PIK3CD; conditions: at 1 µM
T3 sequence (whole entry): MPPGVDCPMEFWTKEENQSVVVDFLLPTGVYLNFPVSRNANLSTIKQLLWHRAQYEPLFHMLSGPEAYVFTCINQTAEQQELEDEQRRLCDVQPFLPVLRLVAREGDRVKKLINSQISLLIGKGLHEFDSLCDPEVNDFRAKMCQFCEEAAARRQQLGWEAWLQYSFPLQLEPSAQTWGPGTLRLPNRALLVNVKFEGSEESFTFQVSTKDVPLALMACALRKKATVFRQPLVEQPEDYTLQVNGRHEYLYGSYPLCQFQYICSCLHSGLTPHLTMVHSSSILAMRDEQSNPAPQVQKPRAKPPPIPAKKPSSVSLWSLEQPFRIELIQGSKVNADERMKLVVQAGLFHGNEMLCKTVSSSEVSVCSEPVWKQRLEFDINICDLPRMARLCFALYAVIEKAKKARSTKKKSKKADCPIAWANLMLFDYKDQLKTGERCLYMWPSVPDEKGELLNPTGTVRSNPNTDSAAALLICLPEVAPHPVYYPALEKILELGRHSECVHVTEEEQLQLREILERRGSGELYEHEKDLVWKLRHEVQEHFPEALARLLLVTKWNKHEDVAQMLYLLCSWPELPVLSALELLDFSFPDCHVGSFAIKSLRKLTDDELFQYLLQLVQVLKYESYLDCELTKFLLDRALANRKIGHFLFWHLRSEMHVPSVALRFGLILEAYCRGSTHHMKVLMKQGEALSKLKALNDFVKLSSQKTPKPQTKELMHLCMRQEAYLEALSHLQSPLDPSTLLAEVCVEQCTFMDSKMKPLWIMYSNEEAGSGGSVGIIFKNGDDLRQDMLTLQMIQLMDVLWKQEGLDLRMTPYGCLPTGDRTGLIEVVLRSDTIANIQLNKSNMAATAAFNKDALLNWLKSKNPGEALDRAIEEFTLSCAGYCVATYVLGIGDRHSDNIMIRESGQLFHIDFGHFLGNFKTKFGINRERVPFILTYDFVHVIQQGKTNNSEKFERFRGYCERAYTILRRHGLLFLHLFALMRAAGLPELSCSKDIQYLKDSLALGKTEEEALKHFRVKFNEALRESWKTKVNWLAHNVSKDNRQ

[12] = target: SRSF protein kinase 2 (Homo sapiens) (UniProt P78362); test: Selectivity interaction (KinomeScan (DiscoverX)) EUB0000295b SRPK2; conditions: at 1 µM
Chain of SRSF protein kinase 2 (Homo sapiens) (P78362 whole entry, looked up): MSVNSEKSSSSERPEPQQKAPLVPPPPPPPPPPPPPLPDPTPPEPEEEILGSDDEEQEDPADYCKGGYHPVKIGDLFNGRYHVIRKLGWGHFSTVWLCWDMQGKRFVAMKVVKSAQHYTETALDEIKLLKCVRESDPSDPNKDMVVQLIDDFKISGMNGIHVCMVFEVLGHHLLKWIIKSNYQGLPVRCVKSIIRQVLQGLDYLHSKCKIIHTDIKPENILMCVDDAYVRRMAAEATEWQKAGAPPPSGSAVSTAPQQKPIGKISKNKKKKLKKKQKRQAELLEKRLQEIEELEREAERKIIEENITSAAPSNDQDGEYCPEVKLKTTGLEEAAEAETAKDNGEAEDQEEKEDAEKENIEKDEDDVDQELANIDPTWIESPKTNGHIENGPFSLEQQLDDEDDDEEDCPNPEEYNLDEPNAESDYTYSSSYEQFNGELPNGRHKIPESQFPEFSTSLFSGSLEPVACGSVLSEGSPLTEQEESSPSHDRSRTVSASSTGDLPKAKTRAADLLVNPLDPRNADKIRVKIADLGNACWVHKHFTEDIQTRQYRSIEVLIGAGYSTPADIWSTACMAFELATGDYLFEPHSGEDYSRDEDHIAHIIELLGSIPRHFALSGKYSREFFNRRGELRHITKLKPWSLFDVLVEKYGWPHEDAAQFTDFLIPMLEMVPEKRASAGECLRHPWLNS

[13] = target: RAF proto-oncogene serine/threonine-protein kinase (Homo sapiens) (UniProt P04049); conditions: at 1 µM
Chain of RAF proto-oncogene serine/threonine-protein kinase (Homo sapiens) (P04049 whole entry): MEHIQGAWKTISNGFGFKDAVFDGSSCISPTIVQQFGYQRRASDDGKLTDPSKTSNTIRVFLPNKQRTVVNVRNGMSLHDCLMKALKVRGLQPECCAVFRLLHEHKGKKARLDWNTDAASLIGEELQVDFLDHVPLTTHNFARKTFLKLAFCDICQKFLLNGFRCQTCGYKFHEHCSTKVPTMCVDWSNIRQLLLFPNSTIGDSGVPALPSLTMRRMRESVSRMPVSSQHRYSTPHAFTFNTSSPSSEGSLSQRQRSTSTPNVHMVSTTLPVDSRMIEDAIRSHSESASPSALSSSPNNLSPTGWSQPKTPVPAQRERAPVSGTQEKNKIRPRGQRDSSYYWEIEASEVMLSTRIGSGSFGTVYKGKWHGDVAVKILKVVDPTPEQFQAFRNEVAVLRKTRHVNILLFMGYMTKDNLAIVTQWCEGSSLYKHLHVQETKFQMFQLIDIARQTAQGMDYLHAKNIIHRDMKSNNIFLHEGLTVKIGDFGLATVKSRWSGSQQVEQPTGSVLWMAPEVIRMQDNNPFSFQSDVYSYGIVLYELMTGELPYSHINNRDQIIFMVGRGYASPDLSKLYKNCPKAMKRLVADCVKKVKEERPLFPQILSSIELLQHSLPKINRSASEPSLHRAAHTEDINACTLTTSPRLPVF

[14] = target: ALK tyrosine kinase receptor (Homo sapiens, UniProt Q9UM73); test: Selectivity interaction (KinomScan Ambit) EUB0000622a ALK; conditions: at 10 µM
[15] = target: Myosin light chain kinase, smooth muscle (Homo sapiens) (UniProt Q15746); test: Selectivity interaction (KinomScan Ambit) EUB0000622a MYLK; conditions: at 10 µM
[16] = test system: T4, Receptor-type tyrosine-protein kinase FLT3 (Homo sapiens), P36888 [D835Y]; test: Selectivity interaction (KinomScan Ambit) EUB0000622a FLT3; conditions: at 10 µM
T4 sequence (whole entry): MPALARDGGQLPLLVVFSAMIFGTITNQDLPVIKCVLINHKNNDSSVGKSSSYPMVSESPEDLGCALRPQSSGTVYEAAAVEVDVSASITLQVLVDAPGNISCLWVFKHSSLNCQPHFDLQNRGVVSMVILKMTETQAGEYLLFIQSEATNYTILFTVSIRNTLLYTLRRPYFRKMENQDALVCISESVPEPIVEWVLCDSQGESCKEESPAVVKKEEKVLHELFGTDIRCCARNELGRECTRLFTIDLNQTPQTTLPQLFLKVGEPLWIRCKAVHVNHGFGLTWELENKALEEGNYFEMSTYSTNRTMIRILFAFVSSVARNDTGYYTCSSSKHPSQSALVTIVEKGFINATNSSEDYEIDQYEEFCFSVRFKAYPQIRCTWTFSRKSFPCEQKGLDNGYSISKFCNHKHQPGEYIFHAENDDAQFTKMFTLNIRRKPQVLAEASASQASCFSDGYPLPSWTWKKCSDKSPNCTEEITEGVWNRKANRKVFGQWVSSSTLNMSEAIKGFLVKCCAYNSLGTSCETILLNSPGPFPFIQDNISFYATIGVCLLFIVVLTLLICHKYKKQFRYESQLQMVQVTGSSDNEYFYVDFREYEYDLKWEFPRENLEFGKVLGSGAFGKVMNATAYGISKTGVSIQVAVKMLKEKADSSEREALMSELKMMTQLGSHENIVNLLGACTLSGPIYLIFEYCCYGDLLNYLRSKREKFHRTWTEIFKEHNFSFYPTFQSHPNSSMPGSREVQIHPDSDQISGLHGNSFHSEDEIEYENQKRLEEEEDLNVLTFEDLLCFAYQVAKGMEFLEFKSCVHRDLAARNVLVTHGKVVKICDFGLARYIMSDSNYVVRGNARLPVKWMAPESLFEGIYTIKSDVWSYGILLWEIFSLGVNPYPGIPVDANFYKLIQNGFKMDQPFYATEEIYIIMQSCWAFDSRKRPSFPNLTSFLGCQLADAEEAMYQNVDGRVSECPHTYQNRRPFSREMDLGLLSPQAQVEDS

[17] = target: T5, Gamma-aminobutyric acid receptor subunit alpha-1 (Homo sapiens) (UniProt P14867); test: (§1) Selectivity interaction (GPCR panel (PDSP screen)) EUB0000334a GABRA1; conditions: at 10 µM
T5 sequence (whole entry): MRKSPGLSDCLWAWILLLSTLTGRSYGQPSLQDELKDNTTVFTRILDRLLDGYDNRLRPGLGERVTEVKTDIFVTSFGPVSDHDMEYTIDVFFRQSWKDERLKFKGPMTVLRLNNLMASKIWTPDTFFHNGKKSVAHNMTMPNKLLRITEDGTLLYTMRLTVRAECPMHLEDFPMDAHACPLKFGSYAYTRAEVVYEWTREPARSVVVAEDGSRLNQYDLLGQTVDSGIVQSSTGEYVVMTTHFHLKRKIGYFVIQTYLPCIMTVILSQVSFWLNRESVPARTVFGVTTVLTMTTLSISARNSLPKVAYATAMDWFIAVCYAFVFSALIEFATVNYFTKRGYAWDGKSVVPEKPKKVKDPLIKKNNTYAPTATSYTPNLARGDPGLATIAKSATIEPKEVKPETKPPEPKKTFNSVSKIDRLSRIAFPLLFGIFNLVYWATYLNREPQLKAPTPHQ

[18] = target: T5, Gamma-aminobutyric acid receptor subunit alpha-1 (Homo sapiens); test: as §1; conditions: at 10 µM; remark: listed apart in the source
[19] = target: Rho-associated protein kinase 1 (Homo sapiens) (UniProt Q13464); test: Selectivity interaction (KinomeScan (DiscoverX)) EUB0000334a ROCK1; conditions: at 1 µM
[20] = target: Dual specificity tyrosine-phosphorylation-regulated kinase 1B (Homo sapiens, UniProt Q9Y463); test: Selectivity interaction (KinomeScan (DiscoverX)) EUB0000334a DYRK1B; conditions: at 1 µM
[21] = target: Ribosomal protein S6 kinase alpha-3 (Homo sapiens) (UniProt P51812); conditions: at 10 µM
Chain of Ribosomal protein S6 kinase alpha-3 (Homo sapiens) (P51812 whole entry): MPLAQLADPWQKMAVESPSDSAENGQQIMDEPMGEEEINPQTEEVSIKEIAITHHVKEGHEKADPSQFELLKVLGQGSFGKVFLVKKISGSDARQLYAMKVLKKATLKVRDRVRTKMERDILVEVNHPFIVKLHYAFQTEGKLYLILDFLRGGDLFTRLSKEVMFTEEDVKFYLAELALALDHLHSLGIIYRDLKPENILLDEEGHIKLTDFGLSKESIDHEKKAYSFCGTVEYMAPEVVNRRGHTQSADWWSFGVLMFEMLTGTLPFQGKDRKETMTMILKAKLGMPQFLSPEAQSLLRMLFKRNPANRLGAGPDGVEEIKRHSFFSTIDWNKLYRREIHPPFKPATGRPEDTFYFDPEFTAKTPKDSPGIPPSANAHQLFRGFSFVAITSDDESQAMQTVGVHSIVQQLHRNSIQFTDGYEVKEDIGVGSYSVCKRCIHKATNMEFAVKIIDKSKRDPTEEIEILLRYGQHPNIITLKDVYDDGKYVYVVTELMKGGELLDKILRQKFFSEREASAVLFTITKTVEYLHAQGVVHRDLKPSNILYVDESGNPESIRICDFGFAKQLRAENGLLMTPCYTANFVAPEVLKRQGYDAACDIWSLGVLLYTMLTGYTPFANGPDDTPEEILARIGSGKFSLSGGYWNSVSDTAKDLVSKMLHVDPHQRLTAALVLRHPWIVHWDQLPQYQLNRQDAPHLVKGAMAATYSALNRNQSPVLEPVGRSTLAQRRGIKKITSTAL

[22] = target: Serine/threonine-protein kinase pim-1 (Homo sapiens, UniProt P11309); test: Selectivity interaction (Kinase Profiler (Millipore)) EUB0000603a PIM1; conditions: at 10 µM
Chain of Serine/threonine-protein kinase pim-1 (P11309 whole entry, looked up): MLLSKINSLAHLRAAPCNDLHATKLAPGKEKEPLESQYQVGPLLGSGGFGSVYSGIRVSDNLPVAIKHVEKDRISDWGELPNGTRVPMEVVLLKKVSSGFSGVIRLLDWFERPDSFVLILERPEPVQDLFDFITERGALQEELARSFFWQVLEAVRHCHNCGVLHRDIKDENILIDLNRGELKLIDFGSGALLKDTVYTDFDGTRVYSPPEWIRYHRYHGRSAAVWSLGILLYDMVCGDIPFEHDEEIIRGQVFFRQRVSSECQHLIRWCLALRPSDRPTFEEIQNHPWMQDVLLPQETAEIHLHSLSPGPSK

[23] = target: Ribosomal protein S6 kinase alpha-6 (Homo sapiens) (UniProt Q9UK32); conditions: at 10 µM
[24] = test system: Platelet-derived growth factor receptor alpha (Homo sapiens), P16234 [V561D]; test: Selectivity interaction (Kinase Profiler (Millipore)) EUB0000603a PDGFRA; conditions: at 10 µM
[25] = target: Serine/threonine-protein kinase N2 (Homo sapiens) (UniProt Q16513); conditions: at 10 µM
Chain of Serine/threonine-protein kinase N2 (Homo sapiens) (Q16513 whole entry, looked up): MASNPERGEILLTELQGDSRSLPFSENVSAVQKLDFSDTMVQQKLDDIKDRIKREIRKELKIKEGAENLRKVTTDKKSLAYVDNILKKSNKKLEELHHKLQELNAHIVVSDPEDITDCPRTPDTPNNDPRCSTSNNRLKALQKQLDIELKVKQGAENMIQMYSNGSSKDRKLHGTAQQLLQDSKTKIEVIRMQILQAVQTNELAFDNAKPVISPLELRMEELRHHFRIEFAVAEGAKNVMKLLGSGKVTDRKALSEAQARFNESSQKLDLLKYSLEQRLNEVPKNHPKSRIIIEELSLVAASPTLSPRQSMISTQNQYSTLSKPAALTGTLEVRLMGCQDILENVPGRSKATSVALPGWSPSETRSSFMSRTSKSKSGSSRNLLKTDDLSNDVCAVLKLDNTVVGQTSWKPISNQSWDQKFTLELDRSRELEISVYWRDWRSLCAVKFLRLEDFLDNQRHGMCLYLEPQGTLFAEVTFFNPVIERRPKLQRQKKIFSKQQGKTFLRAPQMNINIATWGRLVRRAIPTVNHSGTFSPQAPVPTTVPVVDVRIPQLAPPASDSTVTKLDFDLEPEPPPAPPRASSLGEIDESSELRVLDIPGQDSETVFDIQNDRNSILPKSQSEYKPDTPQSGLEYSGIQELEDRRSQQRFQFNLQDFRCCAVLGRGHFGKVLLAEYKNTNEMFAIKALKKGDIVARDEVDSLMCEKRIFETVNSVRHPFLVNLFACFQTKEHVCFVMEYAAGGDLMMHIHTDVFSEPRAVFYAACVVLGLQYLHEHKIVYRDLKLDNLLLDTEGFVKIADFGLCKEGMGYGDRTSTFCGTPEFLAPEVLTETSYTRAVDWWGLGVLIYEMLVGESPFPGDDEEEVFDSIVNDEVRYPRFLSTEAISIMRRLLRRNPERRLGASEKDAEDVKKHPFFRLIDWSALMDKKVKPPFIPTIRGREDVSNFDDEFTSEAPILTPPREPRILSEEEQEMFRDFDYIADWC

## O=C(NC[C@H](O)CN1CCc2ccccc2C1)c1ccnc(NC2CCC2)c1
[1]
  % of inhibition: 75%

## CN(C)C(=O)/C(C#N)=C/c1ccc(-c2nc3cnc4[nH]ccc4c3n2C2CCCCC2)o1
[2]
  % of inhibition: 97%

## CC(C)S(=O)(=O)c1ccc2nccc(Nc3ccc4scnc4c3)c2c1
[3]
  % of inhibition: 17%
[4]
  % of inhibition: 13%
[5]
  % of inhibition: 18%
[6]
  % of inhibition: 12%

## c1ccc([C@@H]2C[C@H]2NC2CCNCC2)cc1
[7]
  % of inhibition: 49%
[8]
  % of inhibition: 39%
[9]
  % of inhibition: 74%

## CC(=O)N1CCC(c2ccc(C(=O)NC(=N)N)cc2C(F)(F)F)CC1
[10]
  % of inhibition: 67%
[11]
  % of control: 34%
[12]
  % of control: 0%

## OCCn1cc(-c2ccc3c(c2)CCC3=NO)c(-c2ccncc2)n1
[13]
  % of control: 8%

## O=C(Nc1cccnc1)c1cc(-c2ccnc(F)c2)ccc1OCc1ccccc1
[14]
  % of control: < 50%
[15]
  % of control: < 50%
[16]
  % of control: < 50%

## CN([C@@H]1CCc2c(CC(=O)O)c3cc(S(C)(=O)=O)ccc3n2C1)S(=O)(=O)c1ccc(F)cc1
[17]
  inhibition: 41%
[18]
  inhibition: 45%
[19]
  % of control: 6%
[20]
  % of control: 36%

## C[C@@H](Oc1cc(-n2cnc3ccc(CN4CCN(C)CC4)cc32)sc1C(N)=O)c1ccccc1C(F)(F)F
[21]
  % of inhibition: 92%
[22]
  % of inhibition: 90%
[23]
  % of inhibition: 92%
[24]
  % of inhibition: 96%
[25]
  % of inhibition: 92%

From ChEMBL document CHEMBL5212743, “Selectivity Literature for EUbOPEN Chemogenomics Library wave 3” (2023)
